In PMC3411647 (PLoS ONE, 2012):

Key:
[1] = target: T1, rat brain H3R (Rattus norvegicus, UniProt Q9QYN8); test: Competitive/saturation binding with [3H]N-α-methylhistamine, rat cerebral cortex membranes; conditions: 2 nM [3H]N-α-methylhistamine, rat cerebral cortex membranes
T1 construct: from tissue; host or cells: rat cerebral cortex membranes
Experimental: Figure 4 Competition binding experiments with [^3H]-N-α-methylhistamine. […] The presented data are the means ±SE of values from a single experiment performed in duplicate and are representative of three to six separate experiments.
The membranes (50 µg of protein) were incubated with [^3H] N-α-methylhistamine at various concentrations (from 0.03 nM to 50 nM) for saturation binding assays. For competitive binding assays, the membranes (50 µg of protein) were incubated with 10 nM [^3H] N-α-methylhistamine for recombinant hH3R or 2nM [^3H] N-α-methylhistamine for rat brain H3R in the presence of various compound concentrations in the buffer (50 mM Tris–HCl, pH 7.4). […] Following three washes, the membrane-bound radioactivity was measured on a Topcount (PerkinElmer) at 20°C. […] IC50 values were converted to Ki values using the Cheng-Prusoff equation. Each experiment was performed in duplicate and repeated three to six times. All data were analyzed by nonline arregression using GraphPad Prism version 4.0 software.

[2] = target: T2, hH1R (Homo sapiens, UniProt P35367); test: Intracellular Ca2+ flux assay in HEK-293 cells stably expressing hH1R; assay type: cell-based
T2 construct: expressed in transfected cells
T2 sequence (P35367 whole entry): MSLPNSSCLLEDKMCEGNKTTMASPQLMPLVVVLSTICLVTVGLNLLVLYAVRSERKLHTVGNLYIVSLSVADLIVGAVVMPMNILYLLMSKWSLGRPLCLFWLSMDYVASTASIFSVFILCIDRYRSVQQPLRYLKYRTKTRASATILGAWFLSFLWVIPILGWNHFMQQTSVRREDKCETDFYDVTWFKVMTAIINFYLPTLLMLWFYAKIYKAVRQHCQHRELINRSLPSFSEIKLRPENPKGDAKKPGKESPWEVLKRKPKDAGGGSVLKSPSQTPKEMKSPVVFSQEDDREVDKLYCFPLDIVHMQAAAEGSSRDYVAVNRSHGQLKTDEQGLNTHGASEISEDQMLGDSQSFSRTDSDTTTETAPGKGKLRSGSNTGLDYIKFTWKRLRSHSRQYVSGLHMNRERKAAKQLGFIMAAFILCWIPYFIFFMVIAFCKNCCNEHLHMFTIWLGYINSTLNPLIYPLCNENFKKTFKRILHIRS
Source text: Figure 3 The selectivity of ZEL-H16 for hH3R in intracellular Ca^2+ flux assay and CRE-luciferase transcription assay. A–C, Intracellular Ca^2+ flux or CRE-driven luciferase activity induced by ZEL-H16 in HEK-293 cells stably expressing hH1R (A), hH2R (B), or hH4R (C). […] The presented data points are the mean ±SE of triplicate values from a single experiment and are representative of three separate experiments. Statistical analysis between ZEL-H16 added or not added for each concentration point in the kinetic graph was done using a t-test (PRISM software). G, Relative expression of hH1R, hH2R, hH3R and hH4R on transfected HEK-293 cells by ELISA quantification for Flag-tagged cell-surface receptors (***p<0.001, compared to non-transfected HEK 293 cells).
The stably H1R-expressing HEK-293 cells were harvested with Cell Stripper (Mediatech, Herndon, VA), washed twice with phosphate-buffered saline (PBS), and resuspended in Hanks’ balanced salt solution (140 mM NaCl, 5 mM KCl, 10 mM HEPES, pH 7.4, 1 mM CaCl2, 1 mM MgCl2, 1 mg/ml glucose) containing 0.025% bovine serum albumin. […] Calcium flux was measured using excitation at 340 and 380 nm in a Infinite 200 PRO multifunctional microplate reader (Tecan Austria GmbH, Grödig, AT ) and [Ca^2+]i was measured using the 340/380 excitation ratio (R 340/380).

[3] = target: T3, H3R-EGFP (Homo sapiens, UniProt Q9Y5N1); test: Recycling of internalized H3R-EGFP to the cell surface, confocal microscopy; assay type: cell-based; conditions: 20 µM ZEL-H16 or 500 µM histamine for 30 min, cycloheximide 100 µg/ml
T3 construct: expressed in transfected cells
T3 sequence (Q9Y5N1 whole entry): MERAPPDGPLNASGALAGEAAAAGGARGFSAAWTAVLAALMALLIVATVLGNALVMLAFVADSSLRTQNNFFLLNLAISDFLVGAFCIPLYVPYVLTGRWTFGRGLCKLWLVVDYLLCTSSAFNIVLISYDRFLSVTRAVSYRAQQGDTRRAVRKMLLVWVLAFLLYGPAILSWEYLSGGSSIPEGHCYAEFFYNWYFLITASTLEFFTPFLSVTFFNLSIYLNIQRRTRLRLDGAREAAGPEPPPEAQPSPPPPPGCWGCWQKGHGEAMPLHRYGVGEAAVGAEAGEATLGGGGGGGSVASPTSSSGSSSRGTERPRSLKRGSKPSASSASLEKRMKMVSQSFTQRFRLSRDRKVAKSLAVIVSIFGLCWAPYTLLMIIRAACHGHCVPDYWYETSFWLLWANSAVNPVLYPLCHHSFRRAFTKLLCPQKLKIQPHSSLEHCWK
Experimental: Figure 6 Localization of internalized H3R-EGFP stably expressed in HEK-293 cells and recycling of internalized H3R to the cell surface. […] All pictures shown are representative of at least three independent experiments.
HEK-293 cells stably expressing H3R-EGFP were seeded in covered glass-bottom 6-well plates. […] After fixing the cells with 4% paraformaldehyde for 10 min, cells were mounted in mounting reagent (DTT/PBS/glycerol). Confocal images were taken on a Zeiss LSM 510 microscope with an attached Axiovert 200 microscope and LSM5 computer system. Images were collected using QED camera software and processed with Adobe Photoshop.

[4] = target: T4, mouse H3R (Mus musculus, UniProt P58406); test: ERK1/2 phosphorylation in neonatal mouse cortical neuron cultures; assay type: cell-based; conditions: 5 µM
T4 construct: endogenous in cells; host or cells: primary cortical neurons of neonatal ICR mice
T4 sequence (P58406 whole entry): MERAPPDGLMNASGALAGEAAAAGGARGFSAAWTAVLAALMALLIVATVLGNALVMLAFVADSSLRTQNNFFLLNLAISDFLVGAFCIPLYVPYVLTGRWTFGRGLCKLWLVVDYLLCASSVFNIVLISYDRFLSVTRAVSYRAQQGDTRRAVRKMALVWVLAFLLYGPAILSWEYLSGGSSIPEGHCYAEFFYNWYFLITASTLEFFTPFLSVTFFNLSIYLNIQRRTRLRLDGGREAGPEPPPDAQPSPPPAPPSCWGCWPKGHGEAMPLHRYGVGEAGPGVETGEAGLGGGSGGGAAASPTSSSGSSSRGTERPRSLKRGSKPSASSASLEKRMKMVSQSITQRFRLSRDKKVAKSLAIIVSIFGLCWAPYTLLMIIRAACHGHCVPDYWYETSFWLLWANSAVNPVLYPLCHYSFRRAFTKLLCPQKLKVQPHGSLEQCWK
Experimental: Figure 8 Phosphorylation of ERK1/2 induced by ZEL-H16 in mouse cortical neurons. A, Time-dependent phosphorylation of ERK1/2 induced by 5 µM ZEL-H16 in neonatal mouse cortical neuron cultures. B, The phosphorylation of ERK1/2 induced by 50 µM ZEL-H16 for 20 min was mostly abolished by 100 ng/mL PTX or 10 µM thioperamide. Signals were quantified by densitometric image analysis and p-ERK was normalized to a loading control (ERK). The signal at each point is expressed as the percentage of the maximal p-ERK signal induced by ZEL-H16. Data represent the mean ±SE of three independent experiments.
Neuronal cortical cultures were prepared from neonatal ICR mice. Cerebral cortices were dissociated in sterile Dulbecco’s phosphate-buffered saline (D-PBS; Sigma-Aldrich, St. Louis, MO), and the neurons were isolated in the same medium containing 0.5% trypsin at 37°C for 10 min. After centrifugation, dissociated neurons were re-suspended in neurobasal medium (NBM; Gibco, Carlsbad, CA) supplemented with 2% B-27 and 0.5 mmol/L-glutamine (Gibco, Carlsbad, CA) and then plated on 48-well plates at a density of approximately 1.3×10^6 per well. After 7 days of culture, the neurons were serum starved for approximately 3 h prior to drug treatment. […]

[5] = target: T5, H3R (Cavia porcellus, UniProt Q9JI35); test: Guinea-pig ileum bioassay, inhibition of electrically induced twitch
T5 construct: from tissue; host or cells: guinea-pig ileum segments
T5 sequence (Q9JI35 whole entry): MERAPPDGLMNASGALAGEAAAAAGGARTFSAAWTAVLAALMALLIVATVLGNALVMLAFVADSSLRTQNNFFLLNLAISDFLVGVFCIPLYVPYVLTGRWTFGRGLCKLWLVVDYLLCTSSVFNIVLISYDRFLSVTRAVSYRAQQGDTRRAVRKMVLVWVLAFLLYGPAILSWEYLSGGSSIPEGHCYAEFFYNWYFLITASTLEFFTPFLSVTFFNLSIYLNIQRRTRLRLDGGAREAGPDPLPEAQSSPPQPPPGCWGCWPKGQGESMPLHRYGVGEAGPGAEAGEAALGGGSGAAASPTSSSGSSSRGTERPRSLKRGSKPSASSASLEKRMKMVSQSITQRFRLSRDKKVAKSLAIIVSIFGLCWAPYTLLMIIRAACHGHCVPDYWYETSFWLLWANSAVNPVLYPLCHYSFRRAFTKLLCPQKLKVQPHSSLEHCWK
Experimental: Each point is the mean ± s.e.m. of three to six separate experiments.
The procedure used was as described previously. Adult male guinea pigs (300–500 g) were killed by cervical dislocation. The ileum was removed at a point 20 cm from the caecum and flushed with and placed in modified K–H buffer of following composition: 118 mM NaCl, 5.9 mM KCl, 1.2 mM CaCl2, 1.2 mM MgSO4, 1 mM Na2HPO4, 25 mM NaHCO3 and 10 mM D-glucose. Ileum segments (2.5–3 cm) were suspended in 20 ml organ baths containing K–H buffer maintained at 37°C and gassed with 95% O2/5% CO2. Contractile activity under stimulation (rectangular pulses of 15 V, 0.5 ms, and 0.1 Hz) was recorded using isometric transducers (Grass FTO3). […] Mepyramine ([…]) and famotidine ([…]) (Sigma-Aldrich, St. Louis, MO) were added to the K–H buffer to block postsynaptic H1 and presynaptic H2 receptors, respectively.

T1 sequence (Q9QYN8 whole entry): as the sequence (P58406 whole entry) above, with A15T, T286A, G290A, H387R, V389I counted along it

Structure (SMILES): c1ccc2c(c1)c(CCCN1CCCCC1)cn2CCCN1CCCCC1 [ZEL-H16]
- Ki [1]: 4.36 ± 2 nM
- antagonist activity: influence on Ca2+ release stimulated by histamine ([2]; ZEL-H16 added to histamine): neither modulate the intracellular Ca^2+ release stimulated by histamine
- agonist activity: intracellular Ca2+ release ([2]; ZEL-H16 alone, compared to histamine): did not induce similar intracellular Ca^2+ release
- time for internalized H3R to recycle to the cell surface after agonist removal [3]: ≤ 3 h
- time of maximal ERK activation after stimulation [4]: 20 min
- efficacy of inhibition of the contractions of the guinea pig ileum ([5]; electrically induced twitch, mepyramine and famotidine present): 54.03±5.13%
- EC50 ([5]; inhibition of electrically induced twitch, read-out: pD 2 (converted)): 269 nM
